Experimental data published in patent publication US20230140941A1, “NON-ATP/CATALYTIC SITE P38 MITOGEN ACTIVATED PROTEIN KINASE INHIBITORS” (UNIVERSITY OF MARYLAND, BALTIMORE, priority 2020, published 2023).

How the values were obtained:
[1] = test system: patients with Crohn's disease; settings: cited from earlier work
p38β [2] = target: T1, p38β (Homo sapiens, UniProt Q15759); test: Differential scanning fluorimetry (DSF), p38β; type: binding
T1 construct: HA (N); made in house; host or cells: E. coli BL21
T1 sequence (Q15759 whole entry): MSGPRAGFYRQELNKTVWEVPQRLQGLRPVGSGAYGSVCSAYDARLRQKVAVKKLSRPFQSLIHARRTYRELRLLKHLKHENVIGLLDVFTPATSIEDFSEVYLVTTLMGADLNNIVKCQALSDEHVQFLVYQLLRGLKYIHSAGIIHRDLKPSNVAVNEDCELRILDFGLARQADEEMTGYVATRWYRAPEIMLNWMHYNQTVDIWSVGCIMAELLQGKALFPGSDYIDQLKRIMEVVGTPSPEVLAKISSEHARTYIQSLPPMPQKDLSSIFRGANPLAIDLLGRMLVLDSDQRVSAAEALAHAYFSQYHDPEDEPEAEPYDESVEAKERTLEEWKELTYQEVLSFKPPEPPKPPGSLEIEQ

HMVECL monolayers = test: Endothelial permeability assay (10 kDa dextran flux); type: cell-based, human; settings: TNFα and 39.5° C. for 6 h
Description: Endothelial permeability assay: Permeability of HMVECL monolayers was assessed by measuring transendothelial flux of 10 kDa dextran conjugated to Cascade blue fluorescent dye for 30 min at 37° C. in Matrigel-coated 3 μm pore size Transwell plates.

[3] = test system: LPS/hyperthermia-induced ALI; test: Mouse LPS/hyperthermia-induced acute lung injury model, pretreatment; settings: for mice died within 24 h: 1000 μg i.p. 30 min prior to 50 μg LPS i.t. and hyperthermia
[4] = test system: p38-dependent phosphorylation of MK2; test: Inhibition of substrate phosphorylation in HeLa cells, MK2; type: cell-based, human; settings: 10 μM SB203580 or 50 μM UM101 30 min, then anisomycin
Description: (§1) Cell extracts prepared in RIPA buffer containing protease and phosphatase inhibitors were resolved by SDS-PAGE, transferred to PVDF membrane, blocked with 5% nonfat dry milk, probed with primary antibodies against phosphorylated MK2 and Stat-1, and total p38α as a loading control. Bands were detected using secondary antibodies conjugated to infrared fluorophores and infrared fluorescence imaging (Odyssey; LICOR).

[5] = test system: p38-dependent phosphorylation of Stat-1; test: Inhibition of substrate phosphorylation in HeLa cells, Stat-1; type: cell-based, human; settings: 10 μM SB203580 or 50 μM UM101 30 min, then anisomycin
Description: as §1

[6] = test system: IL-8-directed neutrophil TEM through HMVECLs; test: Neutrophil transendothelial migration (TEM) assay; type: cell-based, human; settings: HMVECLs 39.5° C. 6 h
Description: Neutrophil transendothelial migration (TEM) assay: Neutrophils were isolated from heparinized venous blood that was collected from healthy volunteers using a protocol approved by the University of Maryland Institutional Review Board and TEM of calcein-labeled neutrophils through HMVECLs was measured.

p38α vs. p38β = settings: cited from earlier work
HMVECLs [7] = test: TNFα-induced gene expression in HMVECLs (RNASeq); settings: 10 μM SB203580
[8] = test system: LPS-induced lung inflammation; test: Mouse acute lung injury, pretreatment i.p. 1 mg (FIG. 9); type: in vivo; settings: pretreated i.p. 1 mg, then 100 mg LPS i.t. at 39° C.
Description: Mice were pretreated i.p. with 1 mg of test compounds and then treated with […] LPS i.t. at 39° C. to induce inflammation. Lung injury was assessed by measuring total protein in the lung lavage fluid.
(§2) First, the compounds can block thrombin-induced cell permeability in human vascular endothelial cells (FIG. 8). […] Mice were pretreated i.p. with 1 mg of test compounds and then treated with […] LPS i.t. at 39° C. to induce inflammation. Lung injury was assessed by measuring total protein in the lung lavage fluid. […] All mice received 50 μg LPS i.t. and were kept 24 h at 39° C.; all treatments 1 mg in 0.5 ml DMSO given 6 h post-LPS; mean±SM, n=5, * p=0.03 vs DMSO #1; † p=0.16 vs DMSO #2. Lung injury was assessed by measuring total protein in the lung lavage fluid.

LPS-induced lung injury = test: Mouse acute lung injury, treatment 6 h post-LPS (FIG. 10); type: in vivo; settings: 50 μg LPS i.t., 24 h at 39° C., 1 mg in 0.5 ml DMSO 6 h post-LPS
Description: All mice received 50 μg LPS i.t. and were kept 24 h at 39° C.; all treatments 1 mg in 0.5 ml DMSO given 6 h post-LPS; mean±SM, n=5, * p=0.03 vs DMSO #1; † p=0.16 vs DMSO #2. Lung injury was assessed by measuring total protein in the lung lavage fluid.
as §2

[9] = target: unphosphorylated recombinant human p38α (Homo sapiens, UniProt Q16539); test: Differential scanning fluorimetry (DSF), p38α; settings: for p38α ΔTm (° C.) @100 μM: change in melting temperature relative to DMSO control in DSF assay; for increase in melting temperature of p38α: added at 100 μM
Sequence of unphosphorylated recombinant human p38α (Q16539 whole entry): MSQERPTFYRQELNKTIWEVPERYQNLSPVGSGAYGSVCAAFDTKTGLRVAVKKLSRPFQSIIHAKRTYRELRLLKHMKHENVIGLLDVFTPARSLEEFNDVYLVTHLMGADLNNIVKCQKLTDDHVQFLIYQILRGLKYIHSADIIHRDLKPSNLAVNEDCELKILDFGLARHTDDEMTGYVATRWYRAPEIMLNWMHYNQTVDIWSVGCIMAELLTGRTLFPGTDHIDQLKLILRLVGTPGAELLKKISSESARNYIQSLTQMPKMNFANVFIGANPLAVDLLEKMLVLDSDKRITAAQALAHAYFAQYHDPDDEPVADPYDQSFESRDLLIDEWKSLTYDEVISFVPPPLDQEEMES

HMVECLs [10] = test: Cytotoxicity, LDH release; type: cell-based, human; settings: 100 μM for 48 h
recombinant ERK2 = recombinant ERK2 (Homo sapiens, UniProt P28482); test: Differential scanning fluorimetry (DSF), ERK2; type: binding; settings: for ERK2 ΔTm (° C.) @100 μM: change in melting temperature relative to DMSO control in DSF assay; for stabilization of ERK2 in DSF: 10-100 μM
Sequence of recombinant ERK2 (P28482 whole entry, species assumed): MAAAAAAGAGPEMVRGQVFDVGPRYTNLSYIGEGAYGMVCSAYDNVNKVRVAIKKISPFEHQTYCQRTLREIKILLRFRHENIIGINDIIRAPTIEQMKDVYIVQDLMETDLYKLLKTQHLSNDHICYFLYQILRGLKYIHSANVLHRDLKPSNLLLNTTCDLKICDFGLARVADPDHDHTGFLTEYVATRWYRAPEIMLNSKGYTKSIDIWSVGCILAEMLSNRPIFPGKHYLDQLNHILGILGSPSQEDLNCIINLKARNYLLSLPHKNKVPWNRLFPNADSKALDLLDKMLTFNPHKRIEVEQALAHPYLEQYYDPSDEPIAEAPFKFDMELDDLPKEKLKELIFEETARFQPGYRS

HMVECLs [11] = test: Cytotoxicity, MTS assay; type: cell-based, human; settings: 100 μM for 48 h
p38β [12] = target: T1, p38β; test: STD-NMR, p38β; type: binding; settings: 200 μM UM101, 5 μM protein
Description: (§3) Spectra were recorded on an Agilent DD2 500-MHz spectrometer equipped with a 5-mm inverse HFCN probe head at 300 K. During each transient, the protein was saturated with a series of 58 […]-shaped pulses (50 ms, 1 ms delay between pulses) using the vendor-supplied STD-ES pulse sequence, for a total saturation time of 3 seconds. The on-resonance irradiation of protein was done at 0.5 ppm and off-resonance irradiation at 30 ppm. The vendor-supplied WATERGATE pulse sequence was used to suppress the water signal in the STD spectrum. The on-resonance and off-resonance pulse sequences were subtracted internally. A total of 16,384 transients were collected for each STD experiment with a 1 second delay between acquisitions, 6000 Hz spectral width, and 1.3 second acquisition time.

mutated p38α = target: T2, mutated p38α (Homo sapiens, UniProt Q16539, H107T/K165R/L108F/R49K); test: STD-NMR, mutated p38α; type: binding; settings: 200 μM UM101, 5 μM protein
T2 construct: made in house; host or cells: E. coli BL21
T2 sequence (Q16539 whole entry R49K/H107T/L108F/K165R): as the sequence (Q16539 whole entry) above, with R49K, H107T, L108F, K165R counted along it
Description: as §3

p38α = target: T3, p38α (Homo sapiens, UniProt Q16539); test: STD-NMR, p38α; type: binding; settings: 200 μM UM101, 5 μM protein
T3 construct: made in house; host or cells: E. coli BL21
T3 sequence (Q16539 whole entry): as the sequence (Q16539 whole entry) above
Description: as §3

[13] = target: T4, p38α mutant (R49K/HL 107-8TF/K165R) (Homo sapiens, UniProt Q16539, H107T/K165R/L108F/R49K); test: DSF, p38α mutant with 4 mutations in CADD-targeted pocket; type: binding; settings: four of ten target pocket amino acids substituted
T4 construct: made in house; host or cells: E. coli BL21
T4 sequence (Q16539 whole entry R49K/H107T/L108F/K165R): as the sequence (Q16539 whole entry) above, with R49K, H107T, L108F, K165R counted along it

rheumatoid arthritis = settings: two trials; cited from earlier work
[14] = test system: patients at-risk for ARDS; settings: cited from earlier work
[15] = test system: patients with hypercholesterolemia; settings: cited from earlier work

Cc1ccc(-n2nc(C(C)(C)C)cc2NC(=O)Nc2ccc(OCCN3CCOCC3)c3ccccc23)cc1 [BIRB 796]
clinical effect [1]: no clinical effect | serum CRP levels [1]: transiently reduced

C[S+]([O-])c1ccc(-c2nc(-c3ccncc3)c(-c3ccc(F)cc3)[nH]2)cc1 (centres unmarked) [SB203580, reference compound]
stabilization of p38β in DSF (p38β [2]): stabilized both p38α and p38β | reduction of TNFα/hyperthermia-induced permeability increase for 10 kDa dextran (HMVECL monolayers; 10 μM): 50% | reduction of lavage neutrophil content vs. DMSO-treated controls ([3]; 1000 μg i.p.): 46.8% | mice died within 24 h [3]: one of six | anisomycin-stimulated phosphorylation of MK2 (immunoblot) [4]: reduced | anisomycin-stimulated phosphorylation of Stat-1 (immunoblot) [5]: reduced | reduction of hyperthermia-augmented increase in neutrophil TEM ([6]; 10 μM): 84% | higher binding affinity for p38α than p38β (p38α vs. p38β): ~10 fold | number of TNFα-induced genes with expression inhibited (HMVECLs [7]): 61 genes | number of genes with expression increased (HMVECLs [7]): 38 genes

CN(C)c1cccc2c(S(=O)(=O)Nc3ccc(CN4CCS(=O)(=O)CC4)cc3)cccc12 [SF-6-222]
protein leak into bronchoalveolar lavage fluid (total protein) [8]: reduced protein leak | protein leak into bronchoalveolar lavage fluid (total protein) (LPS-induced lung injury): reduced protein leak

O=C(Nc1ccc(CN2CCOCC2)cc1)c1ccc(Cl)cc1 [SF-7-009]
protein leak into bronchoalveolar lavage fluid (total protein) [8]: reduced protein leak | protein leak into bronchoalveolar lavage fluid (total protein) (LPS-induced lung injury): reduced protein leak

CN(C)c1cccc2c(S(=O)(=O)Nc3ccc(CN4CCOCC4)cc3)cccc12 [SF-7-044]
protein leak into bronchoalveolar lavage fluid (total protein) (LPS-induced lung injury): reduced protein leak

O=C1c2cc(S(=O)(=O)NCCO)ccc2-c2ccc(S(=O)(=O)NCCO)cc21 [UM60, N2,N7-di(2-hydroxyethyl)-9-oxo-9H-2,7-fluorenedisulfonamiide]
stabilization of p38α in DSF [9]: stabilized p38α | p38α ΔTm (° C.) @100 μM [9]: 0.735 °C | increase in melting temperature of p38α [9]: ~0.7 °C | toxicity in LDH release assay (HMVECLs [10]): Neither compound was toxic | ERK2 ΔTm (° C.) @100 μM (recombinant ERK2): 0.195 °C | stabilization of ERK2 in DSF (recombinant ERK2): not ERK2 | reduction of TNFα/hyperthermia-induced permeability increase for 10 kDa dextran (HMVECL monolayers; 10 μM): no effect | reduction of TNFα/hyperthermia-induced permeability increase for 10 kDa dextran (HMVECL monolayers; 25 μM): no effect | reduction of TNFα/hyperthermia-induced permeability increase for 10 kDa dextran (HMVECL monolayers; 100 μM): 71% | toxicity in MTS assay (HMVECLs [11]): Neither compound was toxic | mice died within 24 h [3]: Four of six | reduction of hyperthermia-augmented increase in neutrophil TEM ([6]; 10 μM): 18% | reduction of hyperthermia-augmented increase in neutrophil TEM ([6]; 25 μM): 89% | reduction of hyperthermia-augmented increase in neutrophil TEM ([6]; 50 μM): less than baseline levels

O=C(Nc1ccc(CN2CCS(=O)(=O)CC2)cc1)c1ccc(Cl)cc1 [UM101, 4-chloro-N-{4-[(1,1-dioxo-1lambda˜6˜-,4thiazinan-4-yl)methyl]phenyl}benzaniide]
stabilization of p38α in DSF [9]: only stabilized p38α | p38α ΔTm (° C.) @100 μM [9]: 0.667 °C | increase in melting temperature of p38α [9]: ~0.7 °C | stabilization of p38β in DSF (p38β [2]): only stabilized p38α | protein leak into bronchoalveolar lavage fluid (total protein) [8]: reduced protein leak | toxicity in LDH release assay (HMVECLs [10]): Neither compound was toxic | ERK2 ΔTm (° C.) @100 μM (recombinant ERK2): 0.0175 °C | stabilization of ERK2 in DSF (recombinant ERK2): not ERK2 | interaction with p38β in STD-NMR (p38β [12]): much weaker | reduction of TNFα/hyperthermia-induced permeability increase for 10 kDa dextran (HMVECL monolayers; 10 μM): 74% | reduction of TNFα/hyperthermia-induced permeability increase for 10 kDa dextran (HMVECL monolayers; 25 μM): 89% | reduction of TNFα/hyperthermia-induced permeability increase for 10 kDa dextran (HMVECL monolayers; 100 μM): > 100% | toxicity in MTS assay (HMVECLs [11]): Neither compound was toxic | interaction with mutated p38α in STD-NMR (mutated p38α): much weaker | reduction of lavage neutrophil content vs. DMSO-treated controls ([3]; 100 μg i.p.): 44.4% | reduction of lavage neutrophil content vs. DMSO-treated controls ([3]; 300 μg i.p.): 49.5% | reduction of lavage neutrophil content vs. DMSO-treated controls ([3]; 500 μg i.p.): 55.3% | reduction of lavage neutrophil content vs. DMSO-treated controls ([3]; 1000 μg i.p.): 54% | mice survived (24 h) ([3]; 100, 300, 500 or 1000 μg i.p. 30 min prior to 50 μg LPS i.t. and hyperthermia): All sixteen | anisomycin-stimulated phosphorylation of MK2 (immunoblot) [4]: reduced | anisomycin-stimulated phosphorylation of Stat-1 (immunoblot) [5]: reduced | reduction of hyperthermia-augmented increase in neutrophil TEM ([6]; 10 μM): 95% | reduction of hyperthermia-augmented increase in neutrophil TEM ([6]; 25 μM): less than baseline levels | reduction of hyperthermia-augmented increase in neutrophil TEM ([6]; 50 μM): less than baseline levels | interaction with p38α in STD-NMR (p38α): protons in both aromatic rings of UM101 interact with p38α | binding to p38α mutant in DSF [13]: no UM101-binding

NC(=O)c1ccc(N(C(N)=O)c2c(F)cccc2F)nc1-c1ccc(F)cc1F [VX-702]
proportion of treated subjects with ACR20 symptom score vs. placebo (rheumatoid arthritis): small increases

Cc1cc(F)ccc1-c1nc(NC(CO)CO)nc2c1ccc(=O)n2-c1c(F)cccc1F [dilmapimod]
safety [14]: safe at the doses administered | serum C-reactive protein (CRP) levels [14]: modestly reduced

Cc1c(F)cc(C(=O)NC2CC2)cc1-c1ccc(C(=O)NCC(C)(C)C)cn1 [losmapimod]
serum CRP [15]: reduced serum CRP | vascular relaxation [15]: improved vascular relaxation
